Test system: 186277-243-T-J2-PDC complex spheroid viability
Test: Anticancer human tumor 186277-243-T-J2-PDC patient-derived colon adenocarcinoma cell line growth inhibition
Details: for IC50: curve of first compound; for viability, T/C: stronger effect = lower value; active = viability on the fitted dose curve at most 10% of control; inactive = the rest
Method in brief: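 Multicellular complex spheroids of tumor cells with human endothelial cells (HUVEC) and mesenchymal stem cells; the LSD1 inhibitor iadademstat was combined with standard-of-care or investigational agents. Top concentration at or near clinical Cmax, half-log dilutions; final DMSO ≤0.25%.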

[1] = second compound 0.1 µM, first compound 0.0316 µM
[2] = second compound 0.1 µM, first compound 0.1 µM
[3] = second compound 0.316 µM, first compound 0.0316 µM
[4] = second compound 0.316 µM, first compound 0.1 µM
[5] = second compound 1 µM, first compound 0.0316 µM
[6] = second compound 1 µM, first compound 0.1 µM
[7] = second compound 3.16 µM, first compound 0.0316 µM
[8] = second compound 3.16 µM, first compound 0.1 µM
[9] = second compound 10 µM, first compound 0.0316 µM
[10] = second compound 10 µM, first compound 0.1 µM
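Also: 7 day exposure to compounds.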
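For viability, T/C in this document: 100% = DMSO vehicle control viability.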

O=C(c1cc(Cc2n[nH]c(=O)c3ccccc23)ccc1F)N1CCN(C(=O)C2CC2)CC1 + NC1CC1c1ccc(-c2cccc(O)c2)cc1
inactive: viability, T/C [1] 98.8% | viability, T/C [2] 89.7% | viability, T/C (second compound 0.1 µM, first compound 0.316 µM) 95.4% | viability, T/C (second compound 0.1 µM, first compound 1 µM) 103% | viability, T/C (second compound 0.1 µM, first compound 3.16 µM) 122% | viability, T/C (second compound 0.1 µM, first compound 10 µM) 107% | viability, T/C [3] 101% | viability, T/C [4] 101% | viability, T/C (second compound 0.316 µM, first compound 0.316 µM) 110% | viability, T/C (second compound 0.316 µM, first compound 1 µM) 92.6% | viability, T/C (second compound 0.316 µM, first compound 3.16 µM) 121% | viability, T/C (second compound 0.316 µM, first compound 10 µM) 98.5% | viability, T/C [5] 106% | viability, T/C [6] 92.7% | viability, T/C (second compound 1 µM, first compound 0.316 µM) 97.4% | viability, T/C (second compound 1 µM, first compound 1 µM) 95.1% | viability, T/C (second compound 1 µM, first compound 3.16 µM) 120% | viability, T/C (second compound 1 µM, first compound 10 µM) 106% | viability, T/C [7] 84.6% | viability, T/C [8] 101% | viability, T/C (second compound 3.16 µM, first compound 0.316 µM) 95.8% | viability, T/C (second compound 3.16 µM, first compound 1 µM) 103% | viability, T/C (second compound 3.16 µM, first compound 3.16 µM) 115% | viability, T/C (second compound 3.16 µM, first compound 10 µM) 108% | viability, T/C [9] 87.9% | viability, T/C [10] 92% | viability, T/C (second compound 10 µM, first compound 0.316 µM) 93.8% | viability, T/C (second compound 10 µM, first compound 1 µM) 85.4% | viability, T/C (second compound 10 µM, first compound 3.16 µM) 120% | viability, T/C (second compound 10 µM, first compound 10 µM) 98.5%
> 10000 nM: IC50 (second compound 0.1 µM) | IC50 (second compound 0.316 µM) | IC50 (second compound 1 µM) | IC50 (second compound 3.16 µM) | IC50 (second compound 10 µM)

CC(C)CC(NC(=O)CNC(=O)c1cc(Cl)ccc1Cl)B1OC(=O)CC(CC(=O)O)(C(=O)O)O1 (stereo not given) + NC1CC1c1ccc(-c2cccc(O)c2)cc1
active: viability, T/C [1] 6.34% | viability, T/C [2] 0.22% | viability, T/C [3] 1.86% | viability, T/C [4] 0.17% | viability, T/C [5] 1.62% | viability, T/C [6] 0.2% | viability, T/C [7] 1.26% | viability, T/C [8] 0.43% | viability, T/C [9] 0.83% | viability, T/C [10] 0.22%
7.75 nM: IC50 (second compound 10 µM)
10.5 nM: IC50 (second compound 0.1 µM)
11 nM: IC50 (second compound 0.316 µM)
inactive: viability, T/C (second compound 0.1 µM, first compound 0.000316 µM) 110% | viability, T/C (second compound 0.1 µM, first compound 0.001 µM) 95.8% | viability, T/C (second compound 0.1 µM, first compound 0.00316 µM) 111% | viability, T/C (second compound 0.1 µM, first compound 0.01 µM) 51.9% | viability, T/C (second compound 0.316 µM, first compound 0.000316 µM) 110% | viability, T/C (second compound 0.316 µM, first compound 0.001 µM) 111% | viability, T/C (second compound 0.316 µM, first compound 0.00316 µM) 111% | viability, T/C (second compound 0.316 µM, first compound 0.01 µM) 54.3% | viability, T/C (second compound 1 µM, first compound 0.000316 µM) 110% | viability, T/C (second compound 1 µM, first compound 0.001 µM) 111% | viability, T/C (second compound 1 µM, first compound 0.00316 µM) 116% | viability, T/C (second compound 1 µM, first compound 0.01 µM) 53.2% | viability, T/C (second compound 3.16 µM, first compound 0.000316 µM) 111% | viability, T/C (second compound 3.16 µM, first compound 0.001 µM) 117% | viability, T/C (second compound 3.16 µM, first compound 0.00316 µM) 110% | viability, T/C (second compound 3.16 µM, first compound 0.01 µM) 52.6% | viability, T/C (second compound 10 µM, first compound 0.000316 µM) 117% | viability, T/C (second compound 10 µM, first compound 0.001 µM) 114% | viability, T/C (second compound 10 µM, first compound 0.00316 µM) 100% | viability, T/C (second compound 10 µM, first compound 0.01 µM) 36.1%
10.6 nM: IC50 (second compound 3.16 µM)
10.7 nM: IC50 (second compound 1 µM)

Nc1ncn(C2CC(O)C(CO)S2)c(=O)n1 (stereo not given) + NC1CC1c1ccc(-c2cccc(O)c2)cc1
active: viability, T/C (second compound 0.316 µM, first compound 0.3 µM) 9.74% | viability, T/C (second compound 10 µM, first compound 0.3 µM) 8.69%
inactive: viability, T/C (second compound 0.1 µM, first compound 0.000949 µM) 113% | viability, T/C (second compound 0.1 µM, first compound 0.003 µM) 123% | viability, T/C (second compound 0.1 µM, first compound 0.00949 µM) 125% | viability, T/C (second compound 0.1 µM, first compound 0.03 µM) 143% | viability, T/C (second compound 0.1 µM, first compound 0.0949 µM) 53.8% | viability, T/C (second compound 0.1 µM, first compound 0.3 µM) 10.9% | viability, T/C (second compound 0.316 µM, first compound 0.000949 µM) 103% | viability, T/C (second compound 0.316 µM, first compound 0.003 µM) 119% | viability, T/C (second compound 0.316 µM, first compound 0.00949 µM) 110% | viability, T/C (second compound 0.316 µM, first compound 0.03 µM) 129% | viability, T/C (second compound 0.316 µM, first compound 0.0949 µM) 46% | viability, T/C (second compound 1 µM, first compound 0.000949 µM) 102% | viability, T/C (second compound 1 µM, first compound 0.003 µM) 106% | viability, T/C (second compound 1 µM, first compound 0.00949 µM) 130% | viability, T/C (second compound 1 µM, first compound 0.03 µM) 128% | viability, T/C (second compound 1 µM, first compound 0.0949 µM) 47.7% | viability, T/C (second compound 1 µM, first compound 0.3 µM) 10.7% | viability, T/C (second compound 3.16 µM, first compound 0.000949 µM) 113% | viability, T/C (second compound 3.16 µM, first compound 0.003 µM) 111% | viability, T/C (second compound 3.16 µM, first compound 0.00949 µM) 105% | viability, T/C (second compound 3.16 µM, first compound 0.03 µM) 137% | viability, T/C (second compound 3.16 µM, first compound 0.0949 µM) 50.9% | viability, T/C (second compound 3.16 µM, first compound 0.3 µM) 10.3% | viability, T/C (second compound 10 µM, first compound 0.000949 µM) 93.8% | viability, T/C (second compound 10 µM, first compound 0.003 µM) 94.1% | viability, T/C (second compound 10 µM, first compound 0.00949 µM) 104% | viability, T/C (second compound 10 µM, first compound 0.03 µM) 107% | viability, T/C (second compound 10 µM, first compound 0.0949 µM) 41%
79.5 nM: IC50 (second compound 10 µM)
88.8 nM: IC50 (second compound 0.316 µM)
91.4 nM: IC50 (second compound 1 µM)
105 nM: IC50 (second compound 0.1 µM)
97.4 nM: IC50 (second compound 3.16 µM)

From PubChem BioAssay AID1918933 (Molecular Pharmacology Branch, DTP, NCI, 2023)
